Here are results for seven substances from patent publication US20070042949A1, “Pharmaceutical compositions comprising an epitope of platelet gpiiia protein” (priority 2003, published 2007).

In the experiment the test system is Peripheral blood mononuclear cells (PBMC) from HPA-1b1b women. In words: T-cell proliferation assay (3H-thymidine incorporation) of PBMC stimulated with HPA-1a/1b 15-mer peptides, HPA-1b1b women. Type of experiment: cell-based, human. The following applies: peptide 20 μg/mL; for immunodominance in stimulating specific T-cell responses in vitro: HPA-1a alloimmunised HPA-1b1b women; for strength of PBMC proliferative response (in words): HPA-1b1b women. On the procedure:
The cells were stimulated with a panel of 15-mer peptides corresponding to the sequences of the HPA-1a and 1b alloantigens containing Leu33 and Pro33 respectively (see FIG. 1). Two categories of control donors were utilised; 1 HPA-1b1b unimmunised donor and 11 HPA-1a randomly selected female donors. Testing of both patients and controls was carried out in cell culture conditions designed to favour proliferation by previously activated T-cells, rather than primary responses.
The human platelet membrane GPIIIa amino acid sequence reported by Frachet et al Mol. Biol. Rep. 1990, vol 14, 27-33 (genebank accession no: M35999) was used as the basis for production of the HPA-1a and HPA-1b GPIIIa synthetic peptides. Two panels of 15-mer peptides were synthesised corresponding to the sequences of the HPA-1 polymorphic region, with either the Leu-33 or Pro-33 at each possible position (see FIG. 1). One set of the 15-mer peptides contained the leucine polymorphism and the other set of 15 contained the proline polymorphism. To ensure purity each panel was synthesized by f-moc chemistry. The peptides were reconstituted to a concentration of 2.0 mg/ml and used for stimulation of PBMC at 20 μg/mL in culture.
Mononuclear cells were recovered from samples of peripheral blood of all patients and control donors by density gradient centrifugation technique (Lymphoprep; Nycomed, Denmark) according to the manufacturer's instructions. The cells were then manually counted by hemocytometer.
Peripheral blood mononuclear cells were cultured at a concentration of 1.25×10^6 cells per mL in Alpha Modification of Eagle's Medium (Sigma Diagnostic, St. Louis, Mo., USA.) supplemented with 4 mmol/l L-glutamine (Gibco, Paisley, UK), 100 μg/ml streptomycin sulphate (Sigma Diagnostic, St. Louis, Mo., USA), 100 u/mL sodium benzylpenicillin G (Sigma Diagnostic, St. Louis, Mo., USA), 20 mmol/L HEPES, PH 7.2 (Sigma Diagnostic, St. Louis, Mo., USA) and 5% autologous serum or AB serum. Twelve microlitres of synthetic HPA-1a/1b peptides and control antigens (PPD, KLH and ConA) were each added to appropriate wells of the microtitre plates before the cell culture suspension was layered. The culture plates were incubated at 37° C. in a humidified atmosphere of 95% air and 5% CO2 for 5 days. T-cell proliferation in cultures was estimated from the incorporation of ^3H-thymidine in triplicate 100 μL samples withdrawn from the plates 5 days after stimulation. T-cell proliferation results were presented either as the mean counts per minute (CPM)±SD of the triplicate samples or as a stimulation index (SI) expressing the ratio of mean CPM in stimulated versus unstimulated control cultures. A SI >3 was interpreted as representing a positive response.

Consider “SEQ ID No:1: 15-mer synthetic HPA-1a (Leu-33) GPIIIa peptide, polymorphism in the C-terminal part of the peptide (VSPMCAWCSDEALPL; listed as Homo sapiens)”, for which the “immunodominance in stimulating specific T-cell responses in vitro” value (shortened to “immunodominance”) is “immunodominant”. Also, the “percentage of HPA-1a alloimmunised HPA-1b1b women in whom the peptide elicited proliferation of T-cells” value (5 days, SI >3 = positive response, 14 alloimmunised women) was “approximately 50%”.
In the case of “SEQ ID No:2: 15-mer synthetic HPA-1a (Leu-33) GPIIIa peptide, polymorphism in the C-terminal part of the peptide (SPMCAWCSDEALPLG; listed as Homo sapiens)”, the “immunodominance” value was “immunodominant”.
Take “SEQ ID No:3: 15-mer synthetic HPA-1a (Leu-33) GPIIIa peptide, polymorphism in the C-terminal part of the peptide (PMCAWCSDEALPLGS; listed as Homo sapiens)”: the “immunodominance” value is given as “immunodominant”.
For “SEQ ID No:4: 15-mer synthetic HPA-1a (Leu-33) GPIIIa peptide, polymorphism in the C-terminal part of the peptide (MCAWCSDEALPLGSP; listed as Homo sapiens)”, the “immunodominance” value is reported as “immunodominant”.
As for “SEQ ID No:5: 15-mer synthetic HPA-1a (Leu-33) GPIIIa peptide, polymorphism in the C-terminal part of the peptide (CAWCSDEALPLGSPR; listed as Homo sapiens)”, the “immunodominance” value is recorded as “immunodominant”.
In the case of “SEQ ID No:6: 15-mer synthetic HPA-1a (Leu-33) GPIIIa peptide, polymorphism in the C-terminal part of the peptide (AWCSDEALPLGSPRC; listed as Homo sapiens)”, the “immunodominance” value is “immunodominant”. The “strength of PBMC proliferative response (in words)” value (5 days) is on record as “strong responses in particular individuals”.
With “SEQ ID No:7: 15-mer synthetic HPA-1a (Leu-33) GPIIIa peptide, polymorphism in the C-terminal part of the peptide (WCSDEALPLGSPRCD; listed as Homo sapiens)”, the “immunodominance” value is listed as “immunodominant”. Moreover, the “strength of PBMC proliferative response (in words)” value (5 days) is recorded as “strong responses in particular individuals”.
